One series addresses M. tuberculosis PanK (Mycobacterium tuberculosis, UniProt P9WPA7). Kind of series: PanK activity during incubation with prodrug and EthA. Format: biochemical. The following applies: 8 hours of incubation with EthA and NADPH, compound 0.3 mM.
Another series has as its system M. tuberculosis H37Rv. Description: MIC against M. tuberculosis H37Rv (wild type). Format: cell-based. Particulars: Mycobacterium tuberculosis; strain H37Rv.
In a further series the test system is human cell lines. The arrangement: method as in PMID 26097035. The following applies: cited from earlier work.
For another series, the system named is M. tuberculosis H37Ra. Description: microbe, parasite or virus in culture. Format: cell-based. Particulars: Mycobacterium tuberculosis, read-out: Growth inhibition at harvest (OD600).
Series [1] has as its target M. tuberculosis PanK wild type (Mycobacterium tuberculosis, UniProt P9WPA7). Description: biochemical.
The test system of another series is M. tuberculosis PyrG. The arrangement: method as in PMID 26097035, PMID 28475832. The following applies: previously identified PyrG inhibitors; cited from earlier work.
The next series concerns M. tuberculosis. More on the design: method as in PMID 26097035, PMID 28475832. Particulars: known antitubercular activity; cited from earlier work.

Values after ≈ are worked out from the molar mass of the structure shown. “Also recorded” adds a separate entry of the source.

Sequence of M. tuberculosis PanK wild type (P9WPA7 whole entry): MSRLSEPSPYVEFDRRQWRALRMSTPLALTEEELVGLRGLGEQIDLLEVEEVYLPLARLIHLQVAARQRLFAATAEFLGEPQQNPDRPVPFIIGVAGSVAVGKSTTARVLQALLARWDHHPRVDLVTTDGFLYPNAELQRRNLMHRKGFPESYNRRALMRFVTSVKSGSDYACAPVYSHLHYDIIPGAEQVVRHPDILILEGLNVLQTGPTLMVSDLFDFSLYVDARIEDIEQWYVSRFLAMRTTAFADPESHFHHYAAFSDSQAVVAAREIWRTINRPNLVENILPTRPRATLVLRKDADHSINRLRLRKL
Sequence of M. tuberculosis PanK (P9WPA7 whole entry): as above

Consider `O=C(CCc1ccccc1)NC(=S)Nc1ccc(N2CCCCC2)cc1` [compound 7904688, 3-phenyl-N-[(4-piperidin-1-ylphenyl)carbamothioyl]propanamide], for which the “loss of PanK activity” value on M. tuberculosis PanK is given as “more than 90%”. Further, it took 0.5 µg/mL (≈ 1.36 µM) to inhibit growth with M. tuberculosis H37Rv (MIC). Also, the “toxicity against human cell lines” value with human cell lines is recorded as “very low toxicity”.
Regarding `CCc1cc(C(N)=S)ccn1` [Ethionamide, reference compound], the minimum inhibitory concentration (MIC) (commonly the lowest concentration found to suppress growth) with M. tuberculosis H37Rv worked out at 1 µg/mL (≈ 6.02 µM).
In the case of `O=C(COc1cccc(F)c1)Nc1nc(-c2ccccn2)cs1` [GSK920684A, 2-(3-fluorophenoxy)-N-(4-(pyridin-2-yl)thiazol-2-yl)acetamide], in the series on M. tuberculosis H37Ra, the inhibition (commonly the relative decrease from the control value, in per cent) at 0.2 µg/mL is 26%. Also, the “PanK IC50” value in series [1] was “n. i”. Further, the half-inhibitory concentration (IC50) (usually the concentration that inhibits the measured activity by half) in the series on M. tuberculosis PyrG was 22 µM.
Turning to `c1ccc(-c2csc(Nc3nc4cc5c(cc4s3)OCO5)n2)nc1` [GSK735826A, N-(4-(pyridin-2-yl)thiazol-2-yl)-(1,3)dioxolo(4′,5′:4,5)benzo(1,2-d)thiazol-6-amine], the inhibition at 0.2 µg/mL with M. tuberculosis H37Ra was found to be 66%. In addition, the IC50 in series [1] is 70 µM; in the series with M. tuberculosis PyrG, 22 µM. Further, in series [1] (competitive inhibitor towards the ATP binding site), the affinity corresponds to a Ki of 65.3 ± 4.33 µM. Moreover, in the series on M. tuberculosis, the minimum inhibitory concentration (MIC) was 2.7 µM (≈ 0.957 µg/mL).
For `C[C@H]1COC2(CCN(c3nc(=O)c4cc(C(F)(F)F)cc([N+](=O)[O-])c4s3)CC2)O1` [BTZ043, reference compound], the inhibition at 0.2 µg/mL in the series on M. tuberculosis H37Ra was found to be 23%.
With `O=C(CN1CCN(Cc2ccccc2)CC1)Nc1ccc([N+](=O)[O-])cc1C(=O)c1ccccc1` [CDD-823953, N-(2-benzoyl-4-nitrophenyl)-2-(4-benzylpiperazin-1-yl)acetamide], the 50% inhibitory concentration (IC50) is 250 µM in series [1] and 80 µM with M. tuberculosis PyrG. In addition, the MIC with M. tuberculosis was 4.39 µM (≈ 2.01 µg/mL).
In the series with M. tuberculosis H37Rv, `CC1=CC=C(C(=O)Nc2ccc([N+](=O)[O-])cc2)S1(=O)=O` [compound 11426026] gave a minimum inhibitory concentration (MIC) of 1 µg/mL (≈ 3.4 µM). For the same compound, the inhibition at 0.2 µg/mL in the series with M. tuberculosis H37Ra was 83%.
The compound `COc1ccc(-c2nnc(SCC(=O)Nc3ccc([N+](=O)[O-])cc3)o2)cc1` [CDD-934506, 2-((5-(4-methoxyphenyl)-1,3,4-oxadiazol-2-yl)sulfanyl)-N-(4-nitrophenyl)acetamide] displayed a concentration for half-maximal inhibition (IC50) in series [1] of 40 µM. In addition, in the series on M. tuberculosis PyrG, the “PyrG IC50” value was “inactive; also recorded: n. i”. The MIC in the series on M. tuberculosis is 0.87 µM (≈ 0.336 µg/mL).
With `Cc1ccc(C(=O)Nc2ccc([N+](=O)[O-])cc2)s1` [compound 7947882, 5-methyl-N-(4-nitrophenyl)thiophene-2-carboxamide], the “loss of PanK activity” value on M. tuberculosis PanK was “more than 90%”. Further, it took 0.5 µg/mL (≈ 1.91 µM) to inhibit growth in the series with M. tuberculosis H37Rv (MIC). In the series on human cell lines, the “toxicity against human cell lines” value is given as “very low toxicity”.
In the case of `O=C(Cc1ccc(F)cc1)Nc1nc(-c2ccccn2)cs1` [GSK1570606A, 2-(4-fluorophenyl)-N-(4-(pyridin-2-yl)thiazol-2-yl)acetamide], the inhibition at 0.2 µg/mL in the series on M. tuberculosis H37Ra came out at 37%. For the same compound, the “PanK IC50” value in series [1] is “n. i”. For the same compound, in the series on M. tuberculosis PyrG, the IC50 was 4.2 µM. Besides, the MIC with M. tuberculosis is 9.3 µM (≈ 2.91 µg/mL).

Values taken from article PMC5816626, “A multitarget approach to drug discovery inhibiting Mycobacterium tuberculosis PyrG and PanK” (Scientific Reports, 2018).
